From patent publication US7495104B2, “Quinoline or quinazoline derivatives inhibiting auto-phosphorylation of fibroblast growth factor receptors” (Kirin Beer Kabushiki Kaisha, priority 2001, dated 2009) come the findings set out here.

The target of this test is Bek (Homo sapiens, UniProt P21802). The test can be described thus: Inhibitory activity against Bek-autophosphorylation using ELISA method in OCUM-2MD3 cells. As to conditions: 1 hr with compound, read-out: IC50 (concentration necessary for inhibiting 50% of Bek-phosphorylation). Type of test: cell-based. An outline of the steps: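 OCUM-2MD3 human scirrhous gastric cancer cells in 0.1% FCS were exposed to compound for 1 hr at 37° C, then lysed. Phospho-tyrosine proteins were captured with anti-phosphotyrosine antibody, probed with anti-Bek antibody and peroxidase read-out (A450). Positive control (1000 nM) set 0%, untreated 100%; IC50 from multi-level dilutions.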
Bek, sequence (P21802 431-767 limits assumed): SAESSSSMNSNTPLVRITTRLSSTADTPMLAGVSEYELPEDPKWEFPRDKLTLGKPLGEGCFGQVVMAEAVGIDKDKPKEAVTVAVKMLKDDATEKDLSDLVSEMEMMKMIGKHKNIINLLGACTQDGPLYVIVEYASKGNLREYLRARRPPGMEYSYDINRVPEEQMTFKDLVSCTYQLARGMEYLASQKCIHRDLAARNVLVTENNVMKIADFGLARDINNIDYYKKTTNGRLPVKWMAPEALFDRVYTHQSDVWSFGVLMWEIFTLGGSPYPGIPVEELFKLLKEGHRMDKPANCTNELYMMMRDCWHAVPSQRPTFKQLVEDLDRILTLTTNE
On the technique in general: ELISA stands for enzyme-linked immunosorbent assay.
`COc1cc2c(Oc3ccc(NC(=O)NCCC(C)(C)C)c(Cl)c3)ccnc2cc1OCCN1CCN(C)CC1` [Compound 115, 1-(2-Chloro-4-{6-methoxy-7-[2-(4-methyl-piperazin-1-yl)-ethoxy]-quinolin-4-yloxy}-phenyl)-3-(3,3-dimethyl-butyl)-urea]: the IC50 is < 10 nM. For `COc1cc2ncnc(Oc3ccc(Nc4ccc(C(C)(C)C)cc4)cc3)c2cc1OC` [Compound 74, (4-Tert-butylphenyl)-[4-(6,7-dimethoxyquinazolin-4-yloxy)-phenyl]amine] the value was 521 nM; for `COc1cc2nccc(Oc3ccc(NC(=O)NCCC(C)(C)C)cc3F)c2cc1OCCCN1CC(C)OC(C)C1` (stereo not drawn) [Compound 231, 1-(3,3-Dimethyl-butyl)-3-(4-{6-[3-(2,6-dimethyl-morpholin-4-yl)-propoxy]-7-methoxy-quinolin-4-yloxy}-3-fluoro-phenyl)-urea], 113 nM; for `COc1cc2c(Oc3ccc(NC(=O)NCCC(C)(C)C)cc3)ccnc2cc1OCCCl` [Compound 152, 1-{4-[7-(2-Chloro-ethoxy)-6-methoxy-quinolin-4-yloxy]-phenyl}-3-(3,3-dimethyl-butyl)-urea], 25 nM. Regarding `COc1cc2c(Oc3ccc(NC(=O)NCCC(C)(C)C)cc3)ccnc2cc1OCC(O)CN1CCC(Cc2ccccc2)CC1` (stereo not drawn) [Compound 260, 1-(4-{7-[3-(4-Benzyl-piperidin-1-yl)-2-hydroxy-propoxy]-6-methoxy-quinolin-4-yloxy}-phenyl)-3-(3,3-dimethyl-butyl)-urea], the IC50 worked out at 26.7 nM. For `COc1cc2c(Oc3ccc(NC(=O)NCCC(C)(C)C)c(Cl)c3)ccnc2cc1OCCN1CCCN(C)CC1` [Compound 186, 1-(2-Chloro-4-{6-methoxy-7-[2-(4-methyl-[1,4]diazepan-1-yl)-ethoxy]-quinolin-4-yloxy}-phenyl)-3-(3,3-dimethyl-butyl)-urea] the value was 18.3 nM; for `COc1cc2c(Oc3ccc(Nc4ccc(C(C)(C)C)cc4)cc3)ccnc2cc1OCCN1C[C@@H](C)O[C@@H](C)C1` [Compound 68, (4-Tert-butylphenyl)-(4-{7-[2-(2,6-dimethylmorpholin-4-yl)ethoxy]-6-methoxyquinolin-4-yloxy}phenyl)amine], 248 nM. For `COc1cc2c(Oc3ccc(Nc4ccc(C(C)(C)C)cc4)cc3)ccnc2cc1OCCN1CCCCC1` [Compound 38, (4-Tert-butylphenyl)-{4-[6-methoxy-7-(2-piperidin-1-ylethoxy)-quinolin-4-yloxy]phenyl}amine] the value was 463 nM; for `COc1cc(Oc2ccnc3cc(OC)c(OC)cc23)ccc1Nc1ccc(C(C)(C)C)cc1` [Compound 14, (4-Tert-butylphenyl)-[4-(6,7-dimethoxyquinolin-4-yloxy)-2-methoxyphenyl]amine], 1920 nM; for `COCC(C)NCCOc1cc2nccc(Oc3ccc(Nc4ccc(C(C)(C)C)cc4)cc3)c2cc1OC` (stereo not drawn) [Compound 363, N1-[4-(Tert-butyl)phenyl]-4-[(6-methoxy-7-{2-[(2-methoxy-1-methylethyl)amino]ethoxy}-4-quinolyl)oxy]aniline], 364 nM. The result for `COc1cc2c(Oc3ccc(Nc4ccc(C(C)(C)C)cc4)cc3Cl)ccnc2cc1OCCCN1CCC(CO)CC1` [Compound 310, [1-(3-{4-[4-(4-Tert-butyl-phenylamino)-2-chloro-phenoxy]-6-methoxy-quinolin-7-yloxy}-propyl)-piperidin-4-yl]-methanol] reads 184 nM; that for `COc1cc2c(Oc3ccc(NC(=O)NCCC(C)(C)C)cc3)ccnc2cc1OCCCN(C)CCO` [Compound 269, 1-(3,3-Dimethyl-butyl)-3-[4-(7-{3-[(2-hydroxy-ethyl)-methyl-amino]-propoxy}-6-methoxy-quinolin-4-yloxy)-phenyl]-urea], 35.6 nM; that for `COc1cc2nccc(Oc3ccc(NC(=O)NCCC(C)(C)C)cc3OC)c2cc1OC` [Compound 139, 1-[4-(6,7-Dimethoxy-quinolin-4-yloxy)-3-methoxy-phenyl]-3-(3,3-dimethyl-butyl)-urea], 1160 nM.

`COc1cc(Oc2ccnc3cc(OC)c(OC)cc23)ccc1NC(=O)NCCC(C)(C)C` [Compound 138, 1-[4-(6,7-Dimethoxy-quinolin-4-yloxy)-2-methoxy-phenyl]-3-(3,3-dimethyl-butyl)-urea]: the IC50 was found to be 317 nM. For `COc1cc2c(Oc3ccc(NC(=O)NCCC(C)(C)C)cc3)ccnc2cc1OCCN1CC(C)OC(C)C1` (stereo not drawn) [Compound 119, 1-(3,3-Dimethyl-butyl)-3-(4-{7-[2-(2,6-dimethyl-morpholin-4-yl)-ethoxy]-6-methoxy-quinolin-4-yloxy}-phenyl)-urea], the IC50 is < 10 nM. Take `COc1cc2nccc(Oc3ccc(NC(=O)NCCC(C)(C)C)cc3)c2cc1OCCCCN(C)C` [Compound 228, 1-{4-[6-(4-Dimethylamino-butoxy)-7-methoxy-quinolin-4-yloxy]-phenyl}-3-(3,3-dimethyl-butyl)-urea]: the IC50 was determined as 38.5 nM. The result for `COc1cc2c(Oc3ccc(NC(=O)NCCC(C)(C)C)c(F)c3)ccnc2cc1OCCCN1CCC(CO)CC1` [Compound 303, 1-(3,3-Dimethyl-butyl)-3-(2-fluoro-4-{7-[3-(4-hydroxymethyl-piperidin-1-yl)-propoxy]-6-methoxy-quinolin-4-yloxy}-phenyl)-urea] reads 22 nM; that for `COc1cc2c(Oc3ccc(Nc4ccc(C(C)(C)C)cc4)cc3)ccnc2cc1OCCCN1CCCCCC1` [Compound 54, {4-[7-(3-Azepan-1-ylpropoxy)-6-methoxyquinolin-4-yloxyl]-phenyl}-(4-tert-butylphenyl)amine], 324 nM; that for `COc1cc2nccc(Oc3ccc(Nc4ccc(C(C)(C)C)cc4)cc3)c2cc1O` [Compound 214, 4-[4-(4-Tert-butyl-phenylamino)-phenoxy]-7-methoxy-quinolin-6-ol], 26.1 nM. For `COc1cc2nccc(Oc3c(Cl)cc(NC(=O)NCCC(C)(C)C)cc3Cl)c2cc1OC` [Compound 140, 1-[3,5-Dichloro-4-(6,7-dimethoxy-quinolin-4-yloxy)-phenyl]-3-(3,3-dimethyl-butyl)-urea], the IC50 came out at 172 nM. For `CCN(CC)CCOc1cc2nccc(Oc3ccc(Nc4ccc(C(C)(C)C)cc4)cc3)c2cc1OC` [Compound 41, N1-[4-(Tert-butyl)phenyl]-4-({7-[2-(diethylamino)ethoxy]-6-methoxy-4-quinolyl}oxy)aniline] the value was 480 nM. The result for `COc1cc2c(Oc3ccc(Nc4ccc(C(C)(C)C)cc4)cc3)ccnc2cc1OCCN1CC(C)CC(C)C1` (stereo not drawn) [Compound 239, (4-Tert-butyl-phenyl)-(4-{7-[2-(3,5-dimethyl-piperidin-1-yl)-ethoxy]-6-methoxy-quinolin-4-yloxy}-phenyl)-amine] reads 895 nM; that for `COc1cc2c(Oc3ccc(Nc4ccc(C(C)(C)C)cc4)cc3)ccnc2cc1OCC(O)CN1CCOCC1` (stereo not drawn) [Compound 59, 1-{4-[4-(4-Tert-butyl-phenylamino)phenoxy]-6-methoxyquinolin-7-yloxy}-3-morpholin-4-ylpropan-2-ol], 143 nM; that for `COc1cc2c(Oc3ccc(NC(=O)NCCC(C)(C)C)c(F)c3)ccnc2cc1OCCN1C(C)CCCC1C` (stereo not drawn) [Compound 130, 1-(3,3-Dimethyl-butyl)-3-(4-{7-[2-(2,6-dimethyl-piperidin-1-yl)-ethoxy]-6-methoxy-quinolin-4-yloxy}-2-fluoro-phenyl)-urea], 162 nM.
